Measured values reported in patent publication US9156858B2, “Boronic acid derivatives and therapeutic uses thereof” (priority 2012, dated 2015).
Read-outs that look alike come from different tables or passages of the source.

Columns and labels:
ECL1002 (class C) [1] = test: Aztreonam potentiation (MPC@4); assay type: cell-based; conditions: BLI concentration inhibiting growth with 4 μg/mL aztreonam
ec308 (SHV-5) [2] = test: Tigemonam potentiation (MPC@4); assay type: cell-based; conditions: BLI concentration inhibiting growth with 4 μg/mL tigemonam; class A
KP1005 (CTX-M-14) [3] = test: Tigemonam potentiation (MPC@4); assay type: cell-based; conditions: BLI concentration inhibiting growth with 4 μg/mL tigemonam; class A
KP1009 (CTX-M-15) [4] = test: Aztreonam potentiation (MPC@4); assay type: cell-based; conditions: BLI concentration inhibiting growth with 4 μg/mL aztreonam; class A
EC1010 (CMY-6) [5] = test: Aztreonam potentiation (MPC@4); assay type: cell-based; conditions: BLI concentration inhibiting growth with 4 μg/mL aztreonam; class C
KP1004 (KPC-2) = test: Aztreonam potentiation (MPC@4); assay type: cell-based; conditions: BLI concentration inhibiting growth with 4 μg/mL aztreonam; class A
KP1007 (OXA-10) [6] = test: Aztreonam potentiation (MPC@4); assay type: cell-based; conditions: BLI concentration inhibiting growth with 4 μg/mL aztreonam; class D
ec308 (SHV-5) [7] = test: Aztreonam potentiation (MPC@4); assay type: cell-based; conditions: BLI concentration inhibiting growth with 4 μg/mL aztreonam; class A
ECL1002 (class C) [8] = test: Tigemonam potentiation (MPC@4); assay type: cell-based; conditions: BLI concentration inhibiting growth with 4 μg/mL tigemonam
KP1010 (SHV-12) [9] = test: Aztreonam potentiation (MPC@4); assay type: cell-based
KP1005 (CTX-M-14) [10] = test: Aztreonam potentiation (MPC@4); assay type: cell-based; conditions: BLI concentration inhibiting growth with 4 μg/mL aztreonam; class A
KP1007 (OXA-10) [11] = test: Tigemonam potentiation (MPC@4); assay type: cell-based; conditions: BLI concentration inhibiting growth with 4 μg/mL tigemonam; class D
KPX1001 (OXA-2) = test: Aztreonam potentiation (MPC@4); assay type: cell-based; conditions: BLI concentration inhibiting growth with 4 μg/mL aztreonam; class D
OXA-48 = OXA-48 (Klebsiella pneumoniae, UniProt Q6XEC0); test: Inhibition of nitrocefin cleavage by purified enzyme; assay type: biochemical
Chain of OXA-48 (Q6XEC0 23-265 limits assumed): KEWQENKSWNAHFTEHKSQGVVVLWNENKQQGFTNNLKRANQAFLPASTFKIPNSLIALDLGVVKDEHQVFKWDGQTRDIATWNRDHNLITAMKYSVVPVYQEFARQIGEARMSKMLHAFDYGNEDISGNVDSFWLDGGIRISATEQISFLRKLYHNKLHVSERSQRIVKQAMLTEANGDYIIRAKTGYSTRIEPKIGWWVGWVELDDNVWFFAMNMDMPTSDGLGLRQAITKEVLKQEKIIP
Experimental: (§1) Ki values of inhibition of purified class A, C and D enzymes were determined spectrophotometrically using nitrocefin as reporter substratre. Purified enzymes were mixed with various concentrations of inhibitors in reaction buffer and incubated for 10 min at room temperature. Nitrocefin was added and substrate cleavage profiles were recorded at 490 nm every 10 sec for 10 min.

KPC-2 = KPC-2 (Klebsiella pneumoniae, UniProt Q9F663); test: as above; assay type: biochemical
Chain of KPC-2 (Q9F663 25-293 limits assumed): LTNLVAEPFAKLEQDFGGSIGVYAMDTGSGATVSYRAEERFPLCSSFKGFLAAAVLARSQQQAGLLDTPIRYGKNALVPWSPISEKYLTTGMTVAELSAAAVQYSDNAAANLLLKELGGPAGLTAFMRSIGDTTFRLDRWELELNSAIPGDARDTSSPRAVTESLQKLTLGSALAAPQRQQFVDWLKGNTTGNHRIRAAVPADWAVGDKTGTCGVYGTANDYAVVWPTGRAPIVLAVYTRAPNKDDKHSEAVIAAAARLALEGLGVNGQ
Experimental: as §1

KP1009 (CTX-M-15) [12] = test: Tigemonam potentiation (MPC@4); assay type: cell-based; conditions: BLI concentration inhibiting growth with 4 μg/mL tigemonam; class A
ec302 (TEM-10) [13] = test: Tigemonam potentiation (MPC@4); assay type: cell-based; conditions: BLI concentration inhibiting growth with 4 μg/mL tigemonam; class A
KP1010 (SHV-12) [14] = test: Tigemonam potentiation (MPC@4); assay type: cell-based; conditions: BLI concentration inhibiting growth with 4 μg/mL tigemonam; class A
ec302 (TEM-10) [15] = test: Aztreonam potentiation (MPC@4); assay type: cell-based; conditions: BLI concentration inhibiting growth with 4 μg/mL aztreonam; class A
CMY-2 = CMY-2 (Klebsiella pneumoniae, UniProt Q48434); test: biochemical
Chain of CMY-2 (Q48434 21-381): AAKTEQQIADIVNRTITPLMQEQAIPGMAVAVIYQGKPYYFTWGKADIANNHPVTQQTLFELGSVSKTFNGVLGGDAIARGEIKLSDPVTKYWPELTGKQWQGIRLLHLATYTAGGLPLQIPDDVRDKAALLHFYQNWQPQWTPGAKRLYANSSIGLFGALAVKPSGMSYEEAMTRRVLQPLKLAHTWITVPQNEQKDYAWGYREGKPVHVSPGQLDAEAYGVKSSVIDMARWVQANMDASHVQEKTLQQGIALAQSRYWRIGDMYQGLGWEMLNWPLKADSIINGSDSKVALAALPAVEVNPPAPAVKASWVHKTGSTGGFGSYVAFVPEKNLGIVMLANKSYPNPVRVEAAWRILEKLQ

EC1010 (CMY-6) [16] = test: Tigemonam potentiation (MPC@4); assay type: cell-based; conditions: BLI concentration inhibiting growth with 4 μg/mL tigemonam; class C
CTX-M-14 = CTX-M-14 (Escherichia coli, UniProt Q9L5C7); test: Inhibition of nitrocefin cleavage by purified enzyme; assay type: biochemical; conditions: nitrocefin reporter substrate, 10 min preincubation, read-out: Ki (CTX-M-14, NCF)
Chain of CTX-M-14 (Q9L5C7 entry or part of it): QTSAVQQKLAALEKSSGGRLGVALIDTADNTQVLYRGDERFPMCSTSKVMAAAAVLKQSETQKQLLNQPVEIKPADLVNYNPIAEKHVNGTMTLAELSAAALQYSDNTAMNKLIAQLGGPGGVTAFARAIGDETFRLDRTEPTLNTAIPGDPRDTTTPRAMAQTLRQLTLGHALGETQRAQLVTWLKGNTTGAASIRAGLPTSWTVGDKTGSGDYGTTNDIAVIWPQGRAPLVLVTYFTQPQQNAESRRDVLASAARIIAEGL
Experimental: as §1

EC1010 (CMY-6) [17] = test: Tigemonam MIC of test strain; conditions: strain EC1010, CMY-6, class C
KP1005 (CTX-M-14) [18] = system: KP1005 (CTX-M-14)
ECL1002 (class C) [19] = conditions: strain ECL1002, class C
KP1010 (SHV-12) [20] = test: Tigemonam MIC of test strain
KP1007 (OXA-10) [21] = test: Tigemonam MIC of test strain; conditions: strain KP1007, OXA-10, class D
ec302 (TEM-10) [22] = test: Tigemonam MIC of test strain
P99 /AmpC of ECL = P99 /AmpC of ECL (Enterobacter cloacae, UniProt P05364); test: biochemical; conditions: purified enzyme, nitrocefin reporter substrate, 10 min preincubation; read-out: Ki (P99 /AmpC of ECL, NCF)
Chain of P99 /AmpC of ECL (P05364 21-381): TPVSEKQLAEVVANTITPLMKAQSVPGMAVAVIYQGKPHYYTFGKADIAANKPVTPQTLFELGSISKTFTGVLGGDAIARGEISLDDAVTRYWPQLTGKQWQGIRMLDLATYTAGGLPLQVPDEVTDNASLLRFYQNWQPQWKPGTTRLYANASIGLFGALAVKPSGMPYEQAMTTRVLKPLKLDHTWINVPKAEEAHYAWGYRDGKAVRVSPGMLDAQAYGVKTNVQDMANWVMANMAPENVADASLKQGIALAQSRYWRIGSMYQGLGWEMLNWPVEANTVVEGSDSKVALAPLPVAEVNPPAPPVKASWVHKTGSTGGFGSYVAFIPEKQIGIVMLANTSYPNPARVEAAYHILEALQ

SHV-12 = SHV-12 (Klebsiella pneumoniae, UniProt P0AD64, E235K/G234S/L31Q); test: Inhibition of nitrocefin cleavage by purified enzyme; assay type: biochemical; conditions: nitrocefin reporter substrate, 10 min preincubation, read-out: Ki (SHV-12, NCF)
Chain of SHV-12 (P0AD64 22-286 L31Q/G234S/E235K): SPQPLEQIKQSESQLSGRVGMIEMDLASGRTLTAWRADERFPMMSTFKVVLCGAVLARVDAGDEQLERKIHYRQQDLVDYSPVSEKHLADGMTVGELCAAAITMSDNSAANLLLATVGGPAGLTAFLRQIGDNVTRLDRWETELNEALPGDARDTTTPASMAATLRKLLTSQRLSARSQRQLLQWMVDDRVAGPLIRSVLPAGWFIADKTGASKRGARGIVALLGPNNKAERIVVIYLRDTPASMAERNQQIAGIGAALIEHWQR
Experimental: as §1

ECL1002 (class C) [23] = test: Aztreonam MIC of test strain; assay type: cell-based; conditions: read-out: Aztreonam MIC
ec308 (SHV-5) [24] = test: Aztreonam MIC of test strain; assay type: cell-based; conditions: read-out: Aztreonam MIC
[25] = BLI concentration inhibiting growth with 4 μg/mL aztreonam, class A
[26] = purified enzyme, nitrocefin reporter substrate, 10 min preincubation, read-out: Ki (OXA-48, NCF)
[27] = purified enzyme, nitrocefin reporter substrate, 10 min preincubation, read-out: Ki (KPC-2, NCF)
[28] = purified enzyme, nitrocefin reporter substrate, 10 min preincubation, read-out: Ki (CMY-2, NCF)

Row | Structure (SMILES) | AZT MPC@4 ECL1002 (ECL1002 (class C) [1]) [µg/mL] | MPC4 SHV-5 ec308 (ec308 (SHV-5) [2]) | MPC4 CTX-M-14 KP1005 (KP1005 (CTX-M-14) [3]) [µg/mL] | AZT MPC4 CTX-M-15 KP1009 (KP1009 (CTX-M-15) [4]) [µg/mL] | AZT MPC@4 CMY-6 EC1010 (EC1010 (CMY-6) [5]) [µg/mL] | AZT MPC4 KPC-2 KP1004 (KP1004 (KPC-2)) [µg/mL] | AZT MPC@4 OXA-10, KP1007 (KP1007 (OXA-10) [6]) [µg/mL] | AZT MPC4 SHV-5 ec308 (ec308 (SHV-5) [7]) [µg/mL] | MPC4 ECL1002 (ECL1002 (class C) [8]) [µg/mL] | AZT MPC4 CTX-M-14 KP1005 (KP1005 (CTX-M-14) [10]) [µg/mL] | MPC4 OXA-10, KP1007 (KP1007 (OXA-10) [11]) | AZT MPC@4 OXA-2, KPX1001 (KPX1001 (OXA-2)) [µg/mL] | MPC4 CTX-M-15 KP1009 (KP1009 (CTX-M-15) [12]) [µg/mL] | MPC4 TEM-10 ec302 (ec302 (TEM-10) [13]) [µg/mL] | MPC4 SHV-12 KP1010 (KP1010 (SHV-12) [14]) | AZT MPC4 TEM-10 ec302 (ec302 (TEM-10) [15]) [µg/mL] | MPC4 CMY-6, EC1010 (EC1010 (CMY-6) [16]) [µg/mL] | AZT MPC4 SHV-12 KP1010 (KP1010 (SHV-12) [9]; [25]) [µg/mL] | Ki (CTX-M-14) [nM] | Ki (OXA-48; [26]) [µM] | further results
1 | C[C@]1(Cn2ccnn2)[C@H](C(=O)O)N2C(=O)C[C@H]2S1(=O)=O [Tazobactam] | >40 | 5 µg/mL | 10 | 20 | 20 | >40 | 5 | 10 | 10 | 10 | 5 µg/mL | >40 | 10 | 5 | 1.25 µg/mL | 5 | 2.5 | – | – | – | AZT MPC4 SHV-12 KP1010 (KP1010 (SHV-12) [9]): 1.25 µg/mL; Ki (OXA-48): 0.16 µM; Ki (KPC-2): 1600 nM; Ki (CMY-2): 710 nM
2 | O=C(O)[C@H]1/C(=C/CO)O[C@@H]2CC(=O)N21 [Clavulanic Acid] | >40 | <=0.6 μg/mL | 2.5 | 1.25 | 40 | >40 | 0.08 | 0.08 | >40 | 1.25 | <=0.6 μg/mL | 5 | 1.25 | 2.5 | <=0.6 μg/mL | 0.3 | 40 | 0.04 | 27 | 18.6 | Ki (KPC-2; [27]): 41200 nM; Ki (CMY-2; [28]): > 100000 nM
3 | CC1(C)[C@H](NC(=O)/C(=N\OCC(=O)O)c2csc(N)n2)C(=O)N1OS(=O)(=O)O [Tigemonam] | – | – | – | – | – | – | – | – | – | – | – | – | – | – | – | – | – | – | – | – | Tigemonam MIC (EC1010 (CMY-6) [17]): 16 µg/mL; Tigemonam MIC (KP1005 (CTX-M-14) [18]): 512 µg/mL; Tigemonam MIC (ECL1002 (class C) [19]): 32 µg/mL; Tigemonam MIC (KP1010 (SHV-12) [20]): 256 µg/mL; Tigemonam MIC (KP1007 (OXA-10) [21]): >64 µg/mL; Tigemonam MIC (ec302 (TEM-10) [22]): >512 µg/mL
4 | O=C(Cc1cccs1)N[C@@H](Cn1cc(C(=O)O)nn1)B(O)O [Compound 1, (R)-1-(2-borono-2-(2-(thiophen-2-yl)acetamido)ethyl)-1H-1,2,3-triazole-4-carboxylic acid] | 20 | 2.5 µg/mL | 2.5 | 10 | 20 | 5 | 0.6 | 0.6 | 5 | 1.25 | 0.3 µg/mL | 40 | 1.25 | >40 | 0.3 µg/mL | >40 | 0.6 | 0.3 | 5 | 23.3 | Ki (P99 /AmpC of ECL): 80 nM; Ki (KPC-2; [27]): 39 nM; Ki (SHV-12): 5 nM; Ki (CMY-2; [28]): 60 nM
5 | C[C@H]1[C@H](NC(=O)/C(=N\OC(C)(C)C(=O)O)c2csc(N)n2)C(=O)N1S(=O)(=O)O [Aztreonam] | – | – | – | – | – | – | – | – | – | – | – | – | – | – | – | – | – | – | – | – | MIC (ECL1002 (class C) [23]): 64 µg/mL; MIC (ec308 (SHV-5) [24]): 64 µg/mL
